US20100158857A1, “Compositions and methods for the inhibition of endothelial nitric oxide synthase activity” (University Of utah Research Foundation, priority 2006, published 2010)
Each block holds one compound with its values, some of them ahead of it.

Legend:
C57BL/6 mice [1] = assay: Systolic blood pressure by tail cuff method in IL-2 treated mice; type: in vivo
Procedure: Systolic blood pressure was measured via tail cuff method (Stoelting, Wood Dell, Ill.) using PowerLab digital signal transducer (AD instruments, Mountain View, Calif.). […] The lower limit of blood pressure detectable using this instrumentation is about 40 mm of Hg. This value of blood pressure was assigned whenever no detectable value could be obtained.
(§1) 1400 W was dissolved at a concentration of 1M in sterile PBS and administered via continuous subcutaneous infusion by Alzet mini osmotic pumps (Model 2001, Alzet Corporation, Cupertino, Calif.). Each pump contained 225 μL of solution that released a constant volume of 28 μL/day, resulting in a calculated delivery of 7 mg 1400 W/mouse/day.
(§2) MLA was dissolved in sterile ultra-filtered water at a concentration of 3.38M and loaded into pre-equilibrated osmotic pumps containing 225 μL of solution that released a constant volume of 28 μL/day, resulting in a calculated delivery of 18.5 mg MLA/mouse/day.

C57BL/6 mice [2] = assay: VLS evaluation: [125I]-labeled albumin accumulation in peritoneal fluid of IL-2 treated mice; type: in vivo; settings: for Effect on IL-2 induced radio-albumin accumulation in peritoneal fluid / VLS: given with IL-2, M40403: iNOS WT or iNOS−/− mice, 1400 W: IL-2 treated mice; for [125I] labeled albumin retention in peritoneal fluid: MLA 18.5 mg/mouse/day s.c. during IL-2 treatment
Procedure: Peritoneal fluid was collected using blotting paper. Liver, spleen, intestines, kidneys, lungs and heart were also excised and analyzed for [^125l]-albumin accumulation. Data was expressed as percentage of radiolabeled albumin recovered from each tissue with the total amount recovered from each animal. This form of analysis minimizes differences induced by variability in injection technique.
as §1, §2

peritoneal exudate cells = assay: Inhibition of NO synthesis in IFNγ/LPS-stimulated peritoneal exudate cells (Griess reaction); type: cell-based; settings: 48 hours; highest concentration MLA 1 mM, Polymethylarginine 400 uM
Procedure: First, peritoneal exudate cells were elicited by thioglycolate. These cells were then harvested and cultured in 96 well microtiter wells at 1×10^6 overnight in DMEM media with 5% FCS. Media was then replaced with DMEM containing 50 Units/ml of IFNγ and 100 ng/ml bacterial lipopolysaccharide. Serial dilutions of either N^G-monomethy-L-larginine (MLA) or Polymethylarginine (poly-MLA 7-mer) were then added to experimental wells. The highest concentration of MLA was 1 mM and of Polymethylarginine was 400 uM.
The cultures were then incubated for 48 hours and culture supernatants were assayed for the NO metabolite nitrate using the Griess reaction after nitrate reduction.

[3] = Retention of modified NOS inhibitors in the vasculature; settings: due to their size
[4] = iNOS−/− mice, given together with IL-2

SMILES: CC(=N)NCc1cccc(CN)c1 [1400 W]
Systolic blood pressure (C57BL/6 mice [1]; mice treated with IL-2 plus 1400 W, continuous s.c. infusion 7 mg/mouse/day): 45±7 mm of Hg
Effect on IL-2 induced radio-albumin accumulation in peritoneal fluid / VLS (C57BL/6 mice [2]): did not inhibit

SMILES: [Cl-].[Cl-].[Mn+2].c1cc2nc(c1)CN[C@@H]1CCCC[C@H]1NCCN[C@@H]1CCCC[C@H]1NC2 [M40403]
Systolic blood pressure (C57BL/6 mice [1]; [4]): 85±5 mm of Hg
Effect on IL-2 induced radio-albumin accumulation in peritoneal fluid / VLS (C57BL/6 mice [2]): did not reverse

SMILES: CNC(=N)NCCC[C@H](N)C(=O)O [MLA, N^G-monomethyl-L-arginine]
Effect of serial dilutions on NO production (peritoneal exudate cells): blocked NO production
Systolic blood pressure (C57BL/6 mice [1]; [4]): 80±10 mm of Hg
[125I] labeled albumin retention in peritoneal fluid (C57BL/6 mice [2]; iNOS WT mice): 0.562±0.24%
[125I] labeled albumin retention in peritoneal fluid (C57BL/6 mice [2]; iNOS−/− mice): 1.66±0.06%

Retention in the vasculature [3]: retained in the vasculature
SMILES: CNC(=N)NCCC[C@H](NC(=O)[C@H](CCCNC(=N)NC)NC(=O)[C@H](CCCNC(=N)NC)NC(=O)[C@H](CCCNC(=N)NC)NC(=O)[C@H](CCCNC(=N)NC)NC(=O)[C@H](CCCNC(=N)NC)NC(=O)[C@@H](N)CCCNC(=N)NC)C(=O)O [poly-MLA, (N^G-mono-methyl-L-arginine)^7]
